From PMC5315687 (ACS chemical biology, 2017)

Biological target: T1, His6-MibD (Microbispora sp. ATCC PTA-5024, UniProt W2ESX4)
T1 sequence (W2ESX4 1-215): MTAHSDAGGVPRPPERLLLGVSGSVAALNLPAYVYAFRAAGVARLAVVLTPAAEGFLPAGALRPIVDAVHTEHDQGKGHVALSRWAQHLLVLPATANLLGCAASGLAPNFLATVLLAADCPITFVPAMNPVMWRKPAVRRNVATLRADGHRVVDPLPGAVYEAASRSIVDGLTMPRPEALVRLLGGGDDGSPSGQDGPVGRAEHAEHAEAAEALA
Assay: flavin isolated from heat-denatured protein, MALDI-TOF MS
Format: binding
Details: non-covalent, co-purified

Compound: Cc1cc2nc3c(=O)[nH]c(=O)nc-3n(C[C@H](O)[C@H](O)[C@H](O)COP(=O)(O)OP(=O)(O)OC[C@H]3O[C@@H](n4cnc5c(N)ncnc54)[C@H](O)[C@@H]3O)c2cc1C [FAD]
- flavin isolated from heat-denatured protein, MALDI-TOF MS: The isolation of FAD from His6-MibD suggests the cofactor is not covalently linked.
